What all share (experiment): SPR, PtdIns4,5P2-containing liposomes on L1 chip
Background: Surface plasmon resonance follows binding to a sensor surface in real time, without labels.

Experiment [1] has as its target T1, AP2 core (Rattus norvegicus; Mus musculus; Homo sapiens, UniProt P18484+P63010+P84092, form not given, species not given).
T1 construct: gene Ap2a2; heterotetrameric 200 kDa core: alpha trunk-GST, His6-beta2 trunk, mu2 with myc tag (MEQKLI) in surface loop at residue 236, untagged sigma2; E. coli; with AP-2 complex subunit sigma
The settings on record: apparent, multivalent membrane binding; five lysines of the second basic region (Lys330-Lys373) of C-mu2 to Glu, which five not told. From the text:
SPR, PtdIns4,5P2-containing liposomes on L1 chip on AP2 core | (5K>E) slightly weakens the binding of AP2 cores to PtdIns4,5P2-containing membranes
Target sequence in this assay (P18484 1-620): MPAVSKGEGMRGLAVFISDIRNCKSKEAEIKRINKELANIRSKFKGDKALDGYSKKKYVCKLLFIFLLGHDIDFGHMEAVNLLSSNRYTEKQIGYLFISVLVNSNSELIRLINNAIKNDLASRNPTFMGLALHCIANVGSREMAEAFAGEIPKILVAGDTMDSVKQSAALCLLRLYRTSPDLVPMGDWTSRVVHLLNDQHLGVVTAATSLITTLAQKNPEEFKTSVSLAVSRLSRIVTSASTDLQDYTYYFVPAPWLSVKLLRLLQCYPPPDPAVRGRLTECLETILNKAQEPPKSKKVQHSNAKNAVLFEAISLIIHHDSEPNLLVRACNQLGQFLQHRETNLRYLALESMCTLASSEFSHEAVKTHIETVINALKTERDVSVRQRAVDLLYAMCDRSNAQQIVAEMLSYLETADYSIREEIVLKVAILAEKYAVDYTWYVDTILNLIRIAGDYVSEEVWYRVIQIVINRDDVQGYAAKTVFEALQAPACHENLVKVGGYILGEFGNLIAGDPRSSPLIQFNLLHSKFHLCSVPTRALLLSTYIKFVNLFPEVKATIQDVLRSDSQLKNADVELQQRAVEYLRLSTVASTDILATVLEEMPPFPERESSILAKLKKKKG
Target sequence in this assay (P84092 whole entry): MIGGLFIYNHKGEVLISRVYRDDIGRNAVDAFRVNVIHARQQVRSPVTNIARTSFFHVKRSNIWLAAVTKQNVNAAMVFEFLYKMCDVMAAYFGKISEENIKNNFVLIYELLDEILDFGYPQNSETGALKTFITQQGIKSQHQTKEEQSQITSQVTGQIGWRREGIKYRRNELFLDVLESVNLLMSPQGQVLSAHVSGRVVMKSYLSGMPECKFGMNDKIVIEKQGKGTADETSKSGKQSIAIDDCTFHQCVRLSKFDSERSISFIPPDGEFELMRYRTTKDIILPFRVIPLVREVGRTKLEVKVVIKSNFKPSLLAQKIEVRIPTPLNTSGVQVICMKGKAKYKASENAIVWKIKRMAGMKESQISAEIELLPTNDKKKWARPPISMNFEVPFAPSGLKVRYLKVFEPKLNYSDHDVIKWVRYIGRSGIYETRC
Target sequence in this assay (P62743 whole entry, further chain): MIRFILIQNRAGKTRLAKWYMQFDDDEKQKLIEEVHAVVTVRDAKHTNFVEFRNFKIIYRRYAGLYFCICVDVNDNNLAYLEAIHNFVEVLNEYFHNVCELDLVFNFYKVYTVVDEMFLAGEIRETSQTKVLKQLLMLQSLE
Target sequence in this assay (P63010 1-592): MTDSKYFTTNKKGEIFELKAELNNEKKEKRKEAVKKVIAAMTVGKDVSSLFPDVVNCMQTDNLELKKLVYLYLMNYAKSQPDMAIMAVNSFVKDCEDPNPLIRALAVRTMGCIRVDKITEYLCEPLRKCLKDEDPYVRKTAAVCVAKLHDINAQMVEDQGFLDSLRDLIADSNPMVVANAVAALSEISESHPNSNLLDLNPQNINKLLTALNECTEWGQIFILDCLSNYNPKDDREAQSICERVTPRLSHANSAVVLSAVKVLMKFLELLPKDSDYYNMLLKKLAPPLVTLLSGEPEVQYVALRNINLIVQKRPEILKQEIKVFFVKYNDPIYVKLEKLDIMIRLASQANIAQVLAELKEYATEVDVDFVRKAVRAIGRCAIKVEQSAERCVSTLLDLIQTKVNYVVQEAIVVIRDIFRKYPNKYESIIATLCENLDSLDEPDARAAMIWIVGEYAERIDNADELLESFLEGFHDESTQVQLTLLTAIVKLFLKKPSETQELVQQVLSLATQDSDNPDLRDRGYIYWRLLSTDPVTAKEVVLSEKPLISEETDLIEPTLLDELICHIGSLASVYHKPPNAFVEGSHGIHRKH

For experiment [2], the target named is T2, AP2 core (Rattus norvegicus; Mus musculus; Homo sapiens, UniProt P18484+P63010+P84092).
T2 construct: gene Ap2a2; heterotetrameric 200 kDa core: alpha trunk-GST, His6-beta2 trunk, mu2 with myc tag (MEQKLI) in surface loop at residue 236, untagged sigma2; E. coli; with AP-2 complex subunit sigma
T2 sequence (P62743 whole entry): as the sequence (P62743 whole entry, further chain) above
T2 sequence (P84092 whole entry): as the sequence (P84092 whole entry) above
T2 sequence (P63010 1-592): as the sequence (P63010 1-592) above
T2 sequence (P18484 1-620): as the sequence (P18484 1-620) above
The following applies: apparent, multivalent membrane binding (sites on alpha, beta2, mu2); no cargo peptide; 10 mM Tris pH 8.7, 250 mM NaCl.

For experiment [3], the target named is T1, AP2 core. The following applies: apparent, multivalent membrane binding.
Target sequence in this assay (P62743 whole entry): as the sequence (P62743 whole entry, further chain) above
Target sequence in this assay (P18484 1-620): as the sequence (P18484 1-620) above
Target sequence in this assay (P84092 whole entry): as the sequence (P84092 whole entry) above
Target sequence in this assay (P63010 1-592): as the sequence (P63010 1-592) above

Take PtdIns4,5P2: the Kd at AP2 core [1] was found to be 11 µM; at AP2 core [2] it was 7 µM; on AP2 core [3] it was 30 µM.

These data come from PMC3655264, “A Large-Scale Conformational Change Couples Membrane Recruitment to Cargo Binding in the AP2 Clathrin Adaptor Complex” (Cell, 2010).
